Assay results published in patent US8211445B2, “PSM peptides as vaccine targets against methicillin-resistant Staphylococcus” (The United States of America, as represented by the …, priority 2007, dated 2012).
Residues, ends and D or L forms follow the SMILES beside them. No end group written: not given here. *: point of attachment. For = O=C*

Experiments:
human PMN = assay: Measurement of cytokine production by human PMN (ELISA); type: cell-based; parameters: key to IL-8: x: reduced activity; xx: strongly reduced activity; settings: for IL-8: secretion of IL-8 by human neutrophils, relative to wild type PSMα3; for IL-8 secretion: compared with wild type PSMα3
Protocol: After isolation and washing, PMN or PBMC were resuspended in RPMI 1640 medium (Sigma) supplemented with 10% human serum, 2 mM L-glutamine, 100 U/ml penicillin, 100 μg/ml streptomycin, 2 mM sodium pyruvate, and 10 mM HEPES. Cells were distributed to a 96-well culture plate at 200 μl and 5×10^5 cells per well. Synthetic PSM peptides or filtered bacterial culture supernatants were diluted in fresh culture medium and added to the plate at 100 μl/well. Plates were incubated at 37° C. in a 5.5% CO2 incubator for 5 hours. Then, the plate was centrifuged at 1500 rpm for 10 minutes, and supernatant was harvested from each well. Mono Mac 6 cells were obtained from DSMZ (Germany), and were grown in RPMI 1640 plus 10% heat inactivated fetal bovine serum (HyClone), 2 mM L-glutamine, 10.0 units/ml penicillin, 10.0 μg/ml streptomycin, 0.2× non-essential amino acid solution, and OPI medium supplement (Sigma). Cells were grown in T75 culture flasks in a 37° C. CO2 incubator and harvested by centrifugation. After removal of supernatant, cells were resuspended in fresh culture medium, counted, and distributed into a 96-well cell culture plate at 100 μl and 2.5×10^5 cells per well. Phorbol 12-myristate 13-acetate (Sigma) was added to a final concentration of 2.5 ng/ml for cell pre-stimulation. The plate was incubated in a 37° C. CO2 incubator for 3 hours. At the end of the pre-stimulation period, synthetic PSM peptides were diluted in culture medium and added to the cells at 100 μl/well. Cells were incubated in a 37° C. CO2 incubator for 20-22 hours, and the plate was centrifuged at 1500 rpm for 10 minutes. Human TNF-α, IL-1β, IL-8, and mouse TNF-α were measured in the culture supernatants with commercial ELISA assay kits (R&D systems) according to the manufacturer's instructions.
(§1) Human neutrophil assays: Human neutrophil isolation, chemotaxis, calcium ion flux, priming, lysis assays, and measurement of IL-8 production were performed as described in Example 2.

human neutrophils [1] = assay: Priming of human neutrophils (surface expression of CD11b and gp91phox); type: cell-based; parameters: key to CD11b: x: reduced activity; xx: strongly reduced activity; settings: for ability to increase CD11b expression: compared with wild type PSMα3; for CD11b: surface expression of CD11b on human neutrophils, relative to wild type PSMα3
Protocol: (§2) Priming of PMNs by synthetic PSMs was determined by increased surface expression of CD11b and gp91phox (granule exocytosis). PMNs were incubated with 10-10,000 ng/ml PSM, 10 μM fMLP, 10 ng/ml lipopolysaccharide, or 10 μg/ml lipoteichoic acid in 96-well tissue culture plates at 37° C. with rotation for 60 minutes. The assay was terminated by centrifuging cells at 4° C. for 8 minutes at 350×g. Cells were washed twice in cold Dulbecco's phosphate-buffered saline and stained with and isotype control antibody (BD Biosciences) or those specific for CD11b (mAb 44, BD Biosciences) or gp91phox (mAb 7D533). Propidium iodide (0.5 μg/ml) was used to identify dead cells. PMNs were analyzed on a FACSCalibur flow cytometer (Becton Dickinson) and dead cells were excluded with a single gate. Percent positive neutrophils were determined with a marker defined by the boundary of the isotype-matched control antibody.
as §2, with “10-10000” for “10-10,000”, “7D5).” for “7D533).”
as §1

human neutrophils [2] = assay: Lysis of human neutrophils (release of lactate dehydrogenase); type: cell-based; parameters: key to Neutrophil lysis: x: reduced activity; xx: strongly reduced activity; settings: for ability to promote neutrophil lysis: compared with wild type PSMα3; for Neutrophil lysis: pro-inflammatory activity of PSMα3 mutants, relative to wild type PSMα3
Protocol: (§3) Lysis of PMNs by synthetic PSMs or clarified S. aureus culture media was determined essentially as described (Voyich et al., J Infect Dis 194, 1761-70, 2006; Voyich et al., J Immunol 175, 3907-19, 2005). Synthetic PSMs (1 or 10 μg/ml) were added to wells of a 96-well tissue culture plate containing 10^6 PMNs and plates were incubated at 37° C. for up to 3 hours. At the desired times, PMN lysis was determined by release of lactate dehydrogenase (LDH; Cytotoxicity Detection Kit, Roche Applied Sciences). Alternatively, wild-type and isogenic mutant S. aureus strains were cultured for 18 hours at 37° C. in 50 ml TSB with shaking using a 100 ml flask. Bacteria were removed by centrifugation and culture media were sterilized by filtration and stored at −80° C. in aliquots until used. Culture medium was diluted 1:10 in RPMI/H, mixed with human PMNs (10^6) and tested for its ability to cause PMN lysis.
as §3, with “above in Example 2.” for “(Voyich et al., J Infect Dis 194, 1761-70, 2006; Voyich et al., J Immunol 175, 3907-19, 2005).”
as §1

sheep red blood cells = assay: Hemolysis of sheep red blood cells; type: cell-based; settings: 10 μg/ml, compared to other PSMs (FIG. 21G)
Protocol: FIG. 8 includes several graphs showing hemolytic activities of PSMs. […] In FIGS. 8A and 8B, the data are mean±SEM of three independent measurements. P values are vs. DMSO in FIG. 8A and vs. wild-type in FIG. 8B. Hemolytic activity was determined by incubating samples with a 2% (v/v) suspension of sheep red blood cells and incubation at 37° C. for 1 hour. Synthetic PSM peptides or filtered bacterial overnight culture supernatants were diluted in PBS and added to sheep erythrocytes at a final concentration of 10 μg/ml for the peptides and 1:200 for culture filtrates.
Hemolysis: Hemolytic activity of PSM peptides was determined by incubating samples with a 2% (v/v) sheep red blood cells and incubation for 1 h at 37° C. as described (Wang et al., Nature Med. 13:1510-1514, 2007). Hemolytic activity of S. aureus wild-type and psm-mec deletion strains was assessed by streaking on sheep blood agar plates.

[3] = Immunization of mice with synthetic PSM peptides, PSM-specific antibodies by ELISA; type: in vivo, mice (BALB/c); settings: 50 μg s.c. with CFA, booster with IFA
Protocol: In order to determine the immunogenicity of synthetic PSM peptides, mice (BALB/c, female, 6-8 weeks) were injected subcutaneously with 50 μg (100 μL) of each PSM peptide in sterile PBS emulsified with complete Freund's adjuvant (CFA) for primary immunization. A booster injection containing incomplete Freund's adjuvant (IFA) instead of CFA was given to the animals 14 days after the primary immunization. The control group of animals received injections of sterile PBS and adjuvants only. Three blood withdrawals were performed on each mouse. The first two blood samples were collected via retro-orbital route immediately before primary injection and before booster injection, respectively. All animals were sacrificed 21 days after booster injection for the terminal blood samples.
PSM-specific antibodies in mouse serum were determined by ELISA assays. Microtiter plates (Nunc 96-well flat-bottom MaxiSorp plates) were coated with 20 μg/ml of each synthetic PSM peptides in PBS plus 0.05% NaN3, and incubated overnight at 4° C. The plates were washed with PBS containing 0.05% Tween-20, and blocked for 1 hour at room temperature with 1% BSA (Sigma) and 0.05% NaN3 in PBS. Serum samples were diluted in assay diluent (Tris-buffered saline containing 0.1% BSA and 0.05% Tween-20, pH 7.2), and added to the washed wells at 100 μl/well for an incubation of 2 hours at room temperature. Plates were washed again and HRP-labeled goat anti-mouse IgG (R&D Systems) and goat anti-mouse IgM (Jackson ImmunoResearch Laboratory) were diluted in assay diluent and added to the plates at 100 μl/well for an incubation of 1 hour at room temperature in order to detect PSM specific mouse IgG and IgM, respectively. Plates were washed again and a substrate solution containing equal volume of Tetramethylbenzidine and H2O2 was added to the plates at 100 μl/well for color development. The reaction was terminated by adding 50 μl of 1 M H2SO4 to each well, and optical density (O.D.) was measured at 450 nm using an ELISA plate reader.

MRSA strains = settings: cited from earlier work
[4] = non N-formylated synthetic PSM peptides, BALB/c mice (FIG. 12)
[5] = N-formylated synthetic PSM peptides, BALB/c mice (FIG. 11)

Compound	IL-8 (human PMN)	Neutrophil lysis (human neutrophils [2])	further results
fMEFAAKLFKFFKDLLGKFLGNN (For-MEFAAKLFKFFKDLLGKFLGNN; listed as Staphylococcus aureus) [#3]	xx	–	–
MEFVAKLFKFFKDLLGKFLGNN [PSMα3, no formyl]	xx	x	ability to increase CD11b expression (human neutrophils [1]): strongly reduced ability; CD11b (human neutrophils [1]): xx; ability to promote neutrophil lysis (human neutrophils [2]): reduced ability; IL-8 secretion (human PMN): strongly reduced ability
fMEFVAKAFKFFKDLLGKFLGNN (For-MEFVAKAFKFFKDLLGKFLGNN; listed as Staphylococcus aureus) [#5]	–	xx	–
fMEFVAALFKFFKDLLGKFLGNN (For-MEFVAALFKFFKDLLGKFLGNN; listed as Staphylococcus aureus) [#4]	xx	xx	–
fMEFVAKLFKFFKDLLGAFLGNN [#15]	xx	xx	–
CC[C@H](C)[C@H](NC(=O)[C@H](CS)NC(=O)[C@@H](NC(=O)[C@H](CCCCN)NC(=O)[C@@H](NC(=O)[C@H](CC(C)C)NC(=O)[C@H](CC(=O)O)NC(=O)[C@@H](NC(=O)[C@@H](NC(=O)[C@H](CO)NC(=O)[C@@H](NC(=O)[C@@H](NC(=O)[C@@H](NC(=O)CNC(=O)[C@@H](NC(=O)[C@H](Cc1ccccc1)NC(=O)[C@H](CC(=O)O)NC(=O)[C@H](CCSC)NC=O)[C@@H](C)O)C(C)C)[C@@H](C)CC)[C@@H](C)O)[C@@H](C)CC)[C@@H](C)CC)[C@@H](C)CC)[C@@H](C)O)C(=O)N[C@@H](CCC(N)=O)C(=O)N[C@@H](C)C(=O)N[C@@H](Cc1ccccc1)C(=O)NCC(=O)O [PSM-mec] (HELM PEPTIDE1{[O=C[*:2]].M.D.F.T.G.V.I.T.S.I.I.D.L.I.K.T.C.I.Q.A.F.G}$$$$V2.0)	–	–	lysis of sheep erythrocytes (sheep red blood cells): intermediate range
MEGLFNAIKDTVTAAINNDGAKLGTSIVSIVENGVGLLGKLFGF (S. aureus) [PSMβ1]	–	–	specific antibody production in vivo [3, 4]: strongest response
fMEFVAKLFKFFKDLLAKFLGNN [#14]	xx	–	–
fMEFVAKLFAFFKDLLGKFLGNN [#7]	xx	–	–
fMEFVAKLFKFFKDLLGKFLGAN [#19]	xx	xx	ability to increase CD11b expression (human neutrophils [1]): greatest reduction; CD11b (human neutrophils [1]): xx; ability to promote neutrophil lysis (human neutrophils [2]): greatest reduction; IL-8 secretion (human PMN): greatest reduction
fMEFVAKLFKFFKALLGKFLGNN [#11]	xx	–	–
CN[C@H](CC(C)C)C(=O)N[C@H]1C(=O)N[C@@H](CC(N)=O)C(=O)N[C@H]2C(=O)N[C@H]3C(=O)N[C@H](C(=O)N[C@H](C(=O)O)c4cc(O)cc(O)c4-c4cc3ccc4O)[C@H](O)c3ccc(c(Cl)c3)Oc3cc2cc(c3O[C@@H]2O[C@H](CO)[C@@H](O)[C@H](O)[C@H]2O[C@H]2C[C@](C)(N)[C@H](O)[C@H](C)O2)Oc2ccc(cc2Cl)[C@H]1O [vancomycin]	–	–	minimum inhibitory concentration [MIC] (MRSA strains; MRSA strains with decreased susceptibility to vancomycin): 8 to 16 µg/mL; MIC (MRSA strains; strains fully resistant to vancomycin): ≥ 32 µg/mL
fMAFVAKLFKFFKDLLGKFLGNN [#1]	–	xx	CD11b (human neutrophils [1]): x
MGIIAGIIKVIKSLIEQFTGK (S. aureus) [PSMα1]	–	–	specific antibody production in vivo [3, 5]: most robust antibody production; specific antibody production in vivo [3, 4]: strongest response
MAIVGTIIKIIKAIIDIFAK [PSMα4]	–	–	specific antibody production in vivo [3, 5]: most robust antibody production
fMEFVAKLFKFFKDLLGKFLGNA [#20]	xx	x	CD11b (human neutrophils [1]): x
fMEFVAKLFKFFADLLGKFLGNN (For-MEFVAKLFKFFADLLGKFLGNN; listed as Staphylococcus aureus) [#10]	xx	x	CD11b (human neutrophils [1]): xx
